Data published in patent US20110195403A1, “SYSTEMS AND METHODS FOR FERTILITY ANALYSIS” (priority 2010, published 2011).
Values joined by “and” are separate entries in the source; they are usually repeats but may differ in a detail not shown here. Equal entries are not always repeated. Where two headings read alike, the source gives them in different places.

Tests used:
α-amylase = molecular target: T1, α-amylase (Homo sapiens, UniProt P0DUB6); test: α-Amylase inhibition saliva screening (2-chloro-p-nitrophenol-maltotriose substrate, absorbance 405 nm); format: biochemical; details: for % Inhibition / % Std: relative to 100% Saliva Control; for α-amylase assay reading, Ave / α-amylase assay reading (absorbance at 405 nm), single replicate: test compound prepared at 5,000 ppm, saliva, 37° C.; for inhibition of α-Amylase: 100% saliva samples, FIG. 11; for α-Amylase Inhibitor Activity: dilute (3.5%) saliva, FIG. 10
T1 sequence (P0DUB6 16-511): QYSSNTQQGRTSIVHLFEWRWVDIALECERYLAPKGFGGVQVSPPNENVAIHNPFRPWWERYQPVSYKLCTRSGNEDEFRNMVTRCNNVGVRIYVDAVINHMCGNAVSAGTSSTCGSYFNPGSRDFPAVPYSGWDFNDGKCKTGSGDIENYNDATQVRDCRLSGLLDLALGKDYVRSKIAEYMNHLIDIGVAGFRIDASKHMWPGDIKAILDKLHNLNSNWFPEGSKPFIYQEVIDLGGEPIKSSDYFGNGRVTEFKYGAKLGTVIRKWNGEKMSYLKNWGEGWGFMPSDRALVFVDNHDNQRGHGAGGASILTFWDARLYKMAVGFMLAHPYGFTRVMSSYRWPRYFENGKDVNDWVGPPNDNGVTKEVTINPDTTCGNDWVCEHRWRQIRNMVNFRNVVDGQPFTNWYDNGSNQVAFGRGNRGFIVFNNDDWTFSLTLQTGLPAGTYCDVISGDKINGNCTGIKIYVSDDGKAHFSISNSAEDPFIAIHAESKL
Text: Further details of these five compounds may also be seen in Table 4.

peroxidase = test: Peroxidase assay in saliva (Amplex Red); format: biochemical
Protocol: To determine the effect of various GRAS compounds as inhibitors of peroxidase activity, a standard assay using Amplex® Red (Life Technologies), which releases a fluorescent oxidation product.
The test compounds, such as GRAS materials or cocktails of same, were prepared at a concentration of 500 ppm in distilled water. For the assay, 50 μl samples of test compounds were mixed with 20-30 μl of saliva (either “pooled” or “unpooled”) prior to the addition of Amplex® Red. […] Reactions were allowed to run for 30 minutes during these assays.

Galactose Oxidase = details: dilute (3.5%) saliva; FIG. 13
Lysozyme = molecular target: T2, Lysozyme (Homo sapiens, UniProt P61626); test: Lysozyme inhibition saliva screening (fluorescein-labeled Micrococcus lysodeikticus); format: biochemical; details: for inhibition of Lysozyme: 100% saliva samples (data not shown); for RFU Reading (60 mins): saliva, test compound prepared at 5,000 ppm; for Lysozyme Inhibitor Activity: dilute (3.5%) saliva, FIG. 12
T2 sequence (P61626 19-148): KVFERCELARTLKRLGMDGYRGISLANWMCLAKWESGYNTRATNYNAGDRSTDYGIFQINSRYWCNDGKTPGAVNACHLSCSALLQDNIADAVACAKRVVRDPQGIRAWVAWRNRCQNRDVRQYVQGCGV
Text: Further details of these five compounds may also be seen in Table 5.

[1] = 500 ppm, pooled or unpooled saliva, 30 minutes, FIGS. 26-29

For Aluminum sulfate hydrate [CDI-34], the “% Inhibition” value (α-amylase; 0 min) was 89.96%, the “% Std” value (α-amylase; 0 min) was 10.04% and the “α-amylase assay reading, Ave” value (α-amylase; 0 min) was 0.40. The “α-amylase assay reading (absorbance at 405 nm), single replicate” value (“α-amylase assay reading … single replicate” below) (α-amylase; 0 min, sulfate hydrate) was 0.40 (2×) and 0.36 and 0.45, the “inhibition of α-Amylase” value (α-amylase) was “shown to inhibit α-Amylase” and the “% Inhibition” value (α-amylase; 5 min) was 87.39%. For the same compound, the “% Std” value (α-amylase; 5 min) was 12.61%, the “α-amylase assay reading, Ave” value (α-amylase; 5 min) was 0.50 and the “α-amylase assay reading … single replicate” value (α-amylase; 5 min, sulfate hydrate) was 0.49 and 0.50 (2×) and 0.52. The “% Inhibition” value (α-amylase; 15 min) was 85.98%, the “% Std” value (α-amylase; 15 min) was 14.02% and the “α-amylase assay reading, Ave” value (α-amylase; 15 min) was 0.56. For the same compound, the “α-amylase assay reading … single replicate” value (α-amylase; 15 min, sulfate hydrate) was 0.53 and 0.61 and 0.54 and 0.56 and the “α-Amylase Inhibitor Activity” value (α-amylase) was “shown to have α-Amylase Inhibitor Activity”.

For COc1ccc(O)c(C(C)(C)C)c1 [CDI-039, 3-tert--butyl-hydroxyanisole], the peroxidase inhibition (peroxidase; [1]) was “significant peroxidase inhibition capabilities” and the “Galactose Oxidase Inhibitor Activity” value (Galactose Oxidase) was “shown to have Galactose Oxidase Inhibitor Activity”.

In the case of O=C(O)c1ccccc1 [CDI-40, Benzoic acid], the “Galactose Oxidase Inhibitor Activity” value (Galactose Oxidase) is reported as “shown to have Galactose Oxidase Inhibitor Activity”, the “inhibition of Lysozyme” value (Lysozyme) is reported as “shown to inhibit Lysozyme” and the “RFU Reading (60 mins)” value (Lysozyme) is reported as 35.82 RFU. The “Lysozyme Inhibitor Activity” value (Lysozyme) was “shown to have Lysozyme Inhibitor Activity”.

For O=C(O)c1ccccc1 [CDI #16, Benzoic acid], the peroxidase inhibition (peroxidase) was “significant peroxidase inhibition capabilities”.

In the case of Cn1c(=O)c2c(ncn2C)n(C)c1=O [CDI #33, Caffeine], the peroxidase inhibition (peroxidase; [1]) is reported as “significant peroxidase inhibition capabilities”.

“Aluminum potassium sulfate dodecahydrate [CDI-42]” was tested, and the peroxidase inhibition (peroxidase; [1]) was “significant peroxidase inhibition capabilities”, the “Galactose Oxidase Inhibitor Activity” value (Galactose Oxidase) was “shown to have Galactose Oxidase Inhibitor Activity” and the “% Inhibition” value (α-amylase; 0 min) was 77.07%. The “% Std” value (α-amylase; 0 min) was 22.93%, the “α-amylase assay reading … single replicate” value (α-amylase; 0 min) was 0.80 and 1.13 and 0.90 and 0.84 and the “α-amylase assay reading, Ave” value (α-amylase; 0 min) was 0.92. For the same compound, the “inhibition of α-Amylase” value (α-amylase) was “shown to inhibit α-Amylase”, the “% Inhibition” value (α-amylase; 5 min) was 53.76% and the “% Std” value (α-amylase; 5 min) was 46.24%. For the same compound, the “α-amylase assay reading … single replicate” value (α-amylase; 5 min) was 1.65 and 2.15 and 1.80 and 1.81, the “α-amylase assay reading, Ave” value (α-amylase; 5 min) was 1.85 and the “% Inhibition” value (α-amylase; 15 min) was 42.65%. For the same compound, the “% Std” value (α-amylase; 15 min) was 57.35%, the “α-amylase assay reading … single replicate” value (α-amylase; 15 min) was 2.37 and 2.38 and 2.25 and 2.17 and the “α-amylase assay reading, Ave” value (α-amylase; 15 min) was 2.29. For the same compound, the “α-Amylase Inhibitor Activity” value (α-amylase) was “shown to have α-Amylase Inhibitor Activity”.

CC(=O)O [CDI-047, Acetic acid] was tested, and the “Galactose Oxidase Inhibitor Activity” value (Galactose Oxidase) was “shown to have Galactose Oxidase Inhibitor Activity”, the “inhibition of Lysozyme” value (Lysozyme) was “shown to inhibit Lysozyme” and the “RFU Reading (60 mins)” value (Lysozyme) was 33.53 RFU. The “Lysozyme Inhibitor Activity” value (Lysozyme) was “shown to have Lysozyme Inhibitor Activity”.
